Experimental data reported in patent publication US20260272907A1, “Therapeutic Tyrosine Kinase Inhibitors for Multiple Sclerosis” (Principia Biopharma Inc., priority 2022, published 2026).

Assays:
[1] = test system: patients with relapsing multiple sclerosis; test: Long-term safety extension: number of new Gd-enhancing T1-hyperintense lesions (MRI); assay type: in vivo, human; settings: for Number of new Gd-enhancing lesions, mean±SD: LTS W96
Method: (§1) In the current open-label extension Part B, all patients receive 60 mg/day. MRI outcomes include numbers of new Gd-enhancing and new/enlarging T2 lesions, T2 lesion volume change from baseline, slowly evolving lesions (SEL), and paramagnetic rim lesions (PRL).
(§2) The Week 0 value is from the last MRI obtained in the dose-finding study if performed within 6 weeks prior to Day 1 of the long-term safety study For some patients the Week 0 value began after a gap period ranging from 0-21 weeks. For patients where the gap period was 0 weeks, the Week 0 value began immediately after the completion of Week 16 of the dose-finding study. For patients where the gap period was greater than 6 weeks a new MRI was obtained prior to Day 1 of the long-term safety study.
(§3) If from Week 16 of the dose-finding study (Cohort 2), it is also included in Week 12. If from Week 16 of the dose-finding study (Cohort 1), it is after 4 weeks placebo run out.

[2] = test system: patients with relapsing multiple sclerosis; test: Phase 2b dose-finding study: clinical laboratory tests, ECG, vital signs (PCSAs, ALT levels); assay type: in vivo, human
Method: Temperature, pulse rate, respiratory rate, and blood pressure are assessed. The same method for temperature measurement should be used throughout the study. Blood pressure and pulse measurements are assessed in sitting or supine position with a completely automated device. Same position measurements should be used throughout the study for the same participant. Manual techniques are used only if an automated device is not available. Caffeinated drinks to be avoided before blood pressure measurements. Blood pressure and pulse measurements should be preceded by at least 5 minutes of rest for the participant in a quiet setting without distractions (e.g., television, cell phones). Vital signs (to be taken before blood collection for laboratory tests) consist of 1 pulse, 3 blood pressure measurements (3 consecutive blood pressure readings are recorded at intervals of at least 1 minute), and respiratory rate. The average of the 3 blood pressure readings is recorded.
Single twelve-lead ECGs are obtained as outlined in the SOA (Table 1) using an ECG machine that automatically calculates the heart rate and measures PR, QRS, QT, and QTc intervals. At least one longer rhythm monitoring recording needs to be part of each ECG testing. The ECG is reviewed by a cardiologist for confirmation of abnormality and clinical evaluation. Refer to Example 1.4E for QTc withdrawal criteria and any additional QTc readings that may be necessary.
See Example 1.16 for the list of clinical laboratory tests to be performed and to the SoA (Table 1) for the timing and frequency. The Investigator will review the laboratory report, document this review, and record any clinically relevant changes occurring during the study in the AE section of the eCRF. Clinically significant abnormal laboratory findings are those that are not associated with the underlying disease, unless judged by the Investigator to be more severe than expected for the participant's condition. […] All protocol-required laboratory assessments, as defined in Example 1.16, are conducted in accordance with the laboratory manual and the SoA (Table 1). If laboratory values from non-protocol specified laboratory assessments performed at the institution's local laboratory require a change in participant management or are considered clinically significant by the Investigator (e.g., SAE or AE or dose modification), then the results are recorded in the eCRF.
The following definitions are applied to laboratory parameters, ECG, and vital sign results: • Potentially clinically significant abnormality (PCSA) values are defined as abnormal values considered medically important by the Sponsor according to predefined criteria/thresholds based on literature review and are defined by the Sponsor for clinical laboratory tests and vital signs. • Potentially clinically significant abnormality criteria determine which participants had at least 1 PCSA during the on-treatment period, taking into account all evaluations performed during the on-treatment period including unscheduled or repeated evaluations. The number of all such participants is the numerator for the on-treatment PCSA percentage
Additional tests are performed at any time during the study as determined necessary by the Investigator or required by local regulations.

[3] = test system: patients with relapsing multiple sclerosis; test: Phase 2b dose-finding study: number of new Gd-enhancing T1-hyperintense lesions by brain MRI; settings: for New Gd-enhancing T1-hyperintense lesion count, observed mean (SD): 12 weeks of treatment, Cohorts 1 and 2 pooled; for Patients with no new Gd-enhancing T1 lesions / Gd-enhancing T1 lesion count, mean (SD): Cohort 1 (all doses); for Gd+ lesion count, mean (SD): Cohort 1, 60 mg/day
Method: Cranial (brain) MRI with and without Gd contrast is performed. Basic MRIs are performed for all participants at all study sites and consist of T2- and T1-weighted sequences without and with Gd contrast.
New T1 Gd-enhancing hyperintense and new and enlarging T2 lesions are evaluated at each visit as per the SoA (Table 1), comparing lesion count to that from the previous MRI scan. Unless specified otherwise, the baseline brain MRI is used as the reference to assess all MRI-derived endpoints. The baseline MRI is the last MRI performed before the randomization visit. Standardized endpoint evaluation is assured by central review of brain MRI scans. Blinded central review is performed for all MRI-derived endpoints. Magnetic resonance imaging reviewers are blinded to treatment assignments and to other participant data.
The first step of this procedure tests for an efficacy signal (compared to the null hypothesis of a flat, no dose-response curve) in a procedure that controls the type 1 error. […] The second step is the Dose estimation of the dose-response curve, provided that an efficacy signal is established in the first step.
The 4-week post-randomization placebo data from Cohort 2 (i.e., Week 4 data from Cohort 2) is utilized as the placebo data at Week 12 in analysis, under the assumption of a constant rate of Gd-enhancing T1-hyperintense lesion formation if participants would be receiving placebo over 12 weeks. Participants in Cohort 2 contribute to the placebo data (at Week 4) as well as the data for 4 BTK inhibitor doses (at Week 16). […] If step 1 yields significant results, the best fitting model from the 6 predefined candidate models is chosen using the generalized Akaike information criterion (AIC).
The first step of this procedure tested for an efficacy signal (compared to the null hypothesis of a flat, no dose-response curve) in a procedure that controls the type 1 error.
The MRI assessments were excluded from the analyses if the participant was receiving systemic corticosteroids within the 30 days prior to the MRI assessment date. The 4-week post-randomization placebo data from Cohort 2 (i.e., Week 4 data from Cohort 2) was utilized as the placebo data at Week 12 in analysis under the assumption of a constant rate of Gd-enhancing T1-hyperintense lesion formation if participants were to receive placebo over 12 weeks. Participants in Cohort 2 contributed to the placebo data (at Week 4) as well as the data for 4 BTK inhibitor doses (at Week 16). The 4-week placebo run-out data from Cohort 1 was not included in the analysis. […] Test statistics and adjusted p-values were provided for all 6 candidate models.

[4] = test system: patients with relapsing multiple sclerosis; test: Long-term safety extension: number of new T1 non-enhancing (hypointense) lesions (MRI); assay type: in vivo, human
Method: as §1, §2, §3

[5] = 5 mg daily, after 12 weeks of treatment
[6] = 15 mg daily, after 12 weeks of treatment
[7] = 30 mg daily, after 12 weeks of treatment
[8] = 60 mg daily, after 12 weeks of treatment
[9] = after 4 weeks of placebo run-out

## C=CC(=O)N1CCC[C@@H](n2c(=O)n(-c3ccc(Oc4ccccc4)cc3)c3c(N)nccc32)C1 [the BTK inhibitor, (R)-1-(1-acryloylpiperidin-3-yl)-4-amino-3-(4-phenoxyphenyl)-1H-imidazo[4,5-c]pyridin-2(3H)-one]
[1]; 5/60 mg, Week 0
  Number of new GD-enhancing T1-Hyperintense lesions, Mean (SD): 1.13 (2.66)
  Number of new GD-enhancing T1-Hyperintense lesions, Median: 0.00
[1]; 5/60 mg, Week 12
  Number of new GD-enhancing T1-Hyperintense lesions, Mean (SD): 1.03 (2.57)
  Number of new GD-enhancing T1-Hyperintense lesions, Median: 0.00
[1]; 5/60-mg arm
  Number of new Gd-enhancing lesions, mean±SD: 0.85±2.5
[1]; 15/60 mg, Week 0
  Number of new GD-enhancing T1-Hyperintense lesions, Mean (SD): 1.00 (1.88)
  Number of new GD-enhancing T1-Hyperintense lesions, Median: 0.00
[1]; 15/60 mg, Week 12
  Number of new GD-enhancing T1-Hyperintense lesions, Mean (SD): 0.80 (1.49)
  Number of new GD-enhancing T1-Hyperintense lesions, Median: 0.00
[1]; 15/60-mg arm
  Number of new Gd-enhancing lesions, mean±SD: 0.41±0.91
[1]; 30/60 mg, Week 0
  Number of new GD-enhancing T1-Hyperintense lesions, Mean (SD): 1.68 (4.29)
  Number of new GD-enhancing T1-Hyperintense lesions, Median: 0.00
[1]; 30/60 mg, Week 12
  Number of new GD-enhancing T1-Hyperintense lesions, Mean (SD): 0.78 (3.36)
  Number of new GD-enhancing T1-Hyperintense lesions, Median: 0.00
[1]; 30/60-mg arm
  Number of new Gd-enhancing lesions, mean±SD: 0.90±2.16
[1]; 60/60 mg, Week 0
  Number of new GD-enhancing T1-Hyperintense lesions, Mean (SD): 0.35 (0.61)
  Number of new GD-enhancing T1-Hyperintense lesions, Median: 0.00
[1]; 60/60 mg, Week 12
  Number of new GD-enhancing T1-Hyperintense lesions, Mean (SD): 0.13 (0.43)
  Number of new GD-enhancing T1-Hyperintense lesions, Median: 0.00
[1]; 60/60-mg arm
  Number of new Gd-enhancing lesions, mean±SD: 0.31±0.66
[1]; All (N = 125), Week 0
  Number of new GD-enhancing T1-Hyperintense lesions, Mean (SD): 1.04 (2.72)
  Number of new GD-enhancing T1-Hyperintense lesions, Median: 0.00
[1]; All (N = 125), Week 12
  Number of new GD-enhancing T1-Hyperintense lesions, Mean (SD): 0.69 (2.27)
  Number of new GD-enhancing T1-Hyperintense lesions, Median: 0.00
[2]; 30 mg group, Week 8 visit
  ALT level of the participant with AESI: 105 U/L
[2]; 30 mg group, within 4 days after the Week 8 visit, back to normal level
  ALT level of the participant with AESI: 32 U/L
[2]; 60 mg group, Week 4 visit, ULN 34 U/L
  ALT level of the participant with AESI: 107 U/L
[2]; 60 mg group, Week 12, back to normal level
  ALT level of the participant with AESI: 28 U/L
[2]; reported in multiple treatment groups
  PCSAs related to vital signs, labs and ECGs: relation to dose: no dose relationship
[3]; [5]
  New Gd-enhancing T1-hyperintense lesion count, Mean: 1.39
  New Gd-enhancing T1-hyperintense lesion count, Median: 0.00
[3]; 5 mg once daily
  New Gd-enhancing T1-hyperintense lesion count, observed mean (SD): 1.39 (3.20)
[3]; [6]
  New Gd-enhancing T1-hyperintense lesion count, Mean: 0.77
  New Gd-enhancing T1-hyperintense lesion count, Median: 0.00
[3]; 15 mg once daily
  New Gd-enhancing T1-hyperintense lesion count, observed mean (SD): 0.77 (1.48)
[3]; [7]
  New Gd-enhancing T1-hyperintense lesion count, Mean: 0.76
  New Gd-enhancing T1-hyperintense lesion count, Median: 0.00
[3]; 30 mg once daily
  New Gd-enhancing T1-hyperintense lesion count, observed mean (SD): 0.76 (3.31)
[3]; [8]
  New Gd-enhancing T1-hyperintense lesion count, Mean: 0.13
  New Gd-enhancing T1-hyperintense lesion count, Median: 0.00
  Patients with >=3 new Gd-enhancing T1-hyperintense lesions: 0 n
[3]; 60 mg once daily
  New Gd-enhancing T1-hyperintense lesion count, observed mean (SD): 0.13 (0.43)
[3]; 60 mg, 12 weeks, negative binomial regression model adjusted for baseline lesion activity, 95% CI [28.02%, 96.88%], nominal p=0.0178
  Relative reduction in new Gd-enhancing T1-hyperintense lesions compared with placebo: 85.02%
[3]; 60 mg, end of 12 weeks of treatment, 28 of 31 with evaluable MRI
  Participants with no new Gd-enhancing T1-hyperintense lesions: 90.30%
[3]; 5-60 mg once daily, after 12 weeks of treatment, MCP-Mod
  Dose-response for reduction in number of new active Gd-enhancing T1-hyperintense brain lesions: dose-response relationship
[3]; 4 weeks after discontinuing tolebrutinib (placebo run-out)
  Patients with no new Gd-enhancing T1 lesions: 85.2%
[3]; [9]
  Gd-enhancing T1 lesion count, mean (SD): 0.44 (1.70)
  Gd+ lesion count, mean (SD): 0.31 (0.70)
[3]; after 12 weeks of tolebrutinib
  Gd-enhancing T1 lesion count, mean (SD): 0.37 (0.99)
  Gd+ lesion count, mean (SD): 0.20 (0.56)
[3]; after 12 weeks of tolebrutinib treatment
  Patients with no new Gd-enhancing T1 lesions: 83.3%
[4]; 5/60 mg, Week 0
  Number of new T1 non-enhancing (hypointense) lesions, Mean (SD): 0.23 (0.43)
  Number of new T1 non-enhancing (hypointense) lesions, Median: 0.00
[4]; 5/60 mg, Week 12
  Number of new T1 non-enhancing (hypointense) lesions, Mean (SD): 0.19 (0.60)
  Number of new T1 non-enhancing (hypointense) lesions, Median: 0.00
[4]; 15/60 mg, Week 0
  Number of new T1 non-enhancing (hypointense) lesions, Mean (SD): 0.61 (1.45)
  Number of new T1 non-enhancing (hypointense) lesions, Median: 0.00
[4]; 15/60 mg, Week 12
  Number of new T1 non-enhancing (hypointense) lesions, Mean (SD): 0.26 (0.73)
  Number of new T1 non-enhancing (hypointense) lesions, Median: 0.00
[4]; 30/60 mg, Week 0
  Number of new T1 non-enhancing (hypointense) lesions, Mean (SD): 0.31 (1.09)
  Number of new T1 non-enhancing (hypointense) lesions, Median: 0.00
[4]; 30/60 mg, Week 12
  Number of new T1 non-enhancing (hypointense) lesions, Mean (SD): 0.09 (0.39)
  Number of new T1 non-enhancing (hypointense) lesions, Median: 0.00
[4]; 60/60 mg, Week 0
  Number of new T1 non-enhancing (hypointense) lesions, Mean (SD): 0.06 (0.36)
  Number of new T1 non-enhancing (hypointense) lesions, Median: 0.00
[4]; 60/60 mg, Week 12
  Number of new T1 non-enhancing (hypointense) lesions, Mean (SD): 0.03 (0.18)
  Number of new T1 non-enhancing (hypointense) lesions, Median: 0.00
[4]; All (N = 125), Week 0
  Number of new T1 non-enhancing (hypointense) lesions, Mean (SD): 0.30 (0.96)
  Number of new T1 non-enhancing (hypointense) lesions, Median: 0.00
[4]; All (N = 125), Week 12
  Number of new T1 non-enhancing (hypointense) lesions, Mean (SD): 0.14 (0.52)
  Number of new T1 non-enhancing (hypointense) lesions, Median: 0.00
